The structures appear in SMILES notation. The source made the active and inactive calls. The rule behind the calls is not given here.

Data set [1] relates to SH-SY5Y. Briefly: Neuroprotective activity against ethacrynic acid-induced neurotoxicity human SH-SY5Y cells assessed as increase in cell viability at 5 uM preincubated for 1 hr followed by ethacrynic acid addition and further incubated for 24 hrs by MTT assay. The class given is functional, cell-based. To be noted: time 25.0 hrs. On the technique in general: Tetrazolium dyes change colour on reduction, which living cells bring about.

The nature of data set [2]: Permeability of the compound at pH 7.4 PBS/EtOH buffer (70:30) by PAMPA-BBB assay.
Data set [3] has as its system SH-SY5Y. Briefly: Neuroprotective activity against okadaic acid-induced neurotoxicity in human SH-SY5Y cells assessed as reduction in Tau hyperphosphorylation by measuring cell viability at 1 to 5 uM incubated for 24 hrs by MTT assay. The class given is functional, cell-based. To be noted: dose 1-5 µM.
For data set [4], the system named is SH-SY5Y. Description: Neuroprotective activity against ethacrynic acid-induced neurotoxicity human SH-SY5Y cells assessed as decrease in TDP-43 phosphorylation at Ser409 at 5 uM preincubated for 1 hr followed by EA addition and further incubated for 24 hrs by Western blot analysis. To be noted: time 25.0 hrs. The data set is classed as functional, cell-based. (In general: A western blot detects proteins with antibodies after separation by electrophoresis.)

The target of data set [5] is T1, Tau-tubulin kinase 1 (Homo sapiens, UniProt Q5TCY1). Description: Inhibition of TTBK1 in sporadic ALS patient derived human lymphoblasts assessed as recovery nuclear localization of TDP-43 levels at 5 to 10 uM treated for 24 hrs by Western blot analysis. The class given is cell-based. The settings on record: Lymphoblastoid cell, dose 5-10 µM.
T1 sequence (Q5TCY1 whole entry): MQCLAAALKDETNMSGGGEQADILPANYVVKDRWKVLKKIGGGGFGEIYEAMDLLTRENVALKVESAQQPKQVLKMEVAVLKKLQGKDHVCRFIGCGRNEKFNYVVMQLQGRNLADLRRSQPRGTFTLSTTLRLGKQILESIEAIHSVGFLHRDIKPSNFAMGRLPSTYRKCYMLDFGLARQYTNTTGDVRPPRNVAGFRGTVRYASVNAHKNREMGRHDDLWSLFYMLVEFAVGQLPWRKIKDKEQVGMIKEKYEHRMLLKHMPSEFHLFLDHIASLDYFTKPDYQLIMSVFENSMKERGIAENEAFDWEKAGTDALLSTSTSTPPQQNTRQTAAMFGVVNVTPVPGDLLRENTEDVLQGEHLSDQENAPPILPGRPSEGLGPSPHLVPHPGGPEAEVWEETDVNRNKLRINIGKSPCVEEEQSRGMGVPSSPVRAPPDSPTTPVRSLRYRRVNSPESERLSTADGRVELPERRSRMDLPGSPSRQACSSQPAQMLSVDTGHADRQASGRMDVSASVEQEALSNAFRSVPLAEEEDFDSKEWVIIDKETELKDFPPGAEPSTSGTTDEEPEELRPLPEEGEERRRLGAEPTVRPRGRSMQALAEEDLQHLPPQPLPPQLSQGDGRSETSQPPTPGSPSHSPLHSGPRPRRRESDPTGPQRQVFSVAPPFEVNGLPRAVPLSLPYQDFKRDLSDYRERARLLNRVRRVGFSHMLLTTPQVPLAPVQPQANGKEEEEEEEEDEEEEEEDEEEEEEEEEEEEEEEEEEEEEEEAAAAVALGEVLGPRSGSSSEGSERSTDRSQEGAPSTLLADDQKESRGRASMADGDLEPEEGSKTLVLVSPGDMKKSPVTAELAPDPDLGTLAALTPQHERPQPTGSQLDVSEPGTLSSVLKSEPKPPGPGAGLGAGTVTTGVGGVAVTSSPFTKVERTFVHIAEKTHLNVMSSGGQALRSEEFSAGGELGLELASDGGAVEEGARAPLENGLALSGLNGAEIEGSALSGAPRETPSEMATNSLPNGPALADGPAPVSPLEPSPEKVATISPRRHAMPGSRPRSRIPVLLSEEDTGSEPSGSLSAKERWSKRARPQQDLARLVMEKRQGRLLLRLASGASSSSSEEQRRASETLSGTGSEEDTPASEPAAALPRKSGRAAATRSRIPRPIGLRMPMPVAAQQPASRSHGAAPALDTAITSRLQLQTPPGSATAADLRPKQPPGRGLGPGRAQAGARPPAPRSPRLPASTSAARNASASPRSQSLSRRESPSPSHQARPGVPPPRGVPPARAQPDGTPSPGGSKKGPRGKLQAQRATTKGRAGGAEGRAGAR
In data set [6] the target is T1, Tau-tubulin kinase 1. Briefly: Inhibition of TTBK1 in sporadic ALS patient derived human lymphoblasts assessed as reduction in cytosolic TDP-43 levels at 5 to 10 uM treated for 24 hrs by Western blot analysis. The data set is classed as cell-based. The settings on record: Lymphoblastoid cell, dose 5-10 µM.
Data set [7] concerns the target T1, Tau-tubulin kinase 1. Description: Inhibition of TTBK1 in sporadic ALS patient derived human lymphoblasts assessed as reduction in TDP-43 phosphorylation levels at 5 to 10 uM treated for 24 hrs by Western blot analysis. The data set is classed as cell-based. To be noted: Lymphoblastoid cell, dose 5-10 µM.
Data set [8] deals with T2, Tau-tubulin kinase 2 (Homo sapiens, UniProt Q6IQ55). The settings on record: dose 10.0 µM, time 30.0 min.
T2 sequence (Q6IQ55 whole entry): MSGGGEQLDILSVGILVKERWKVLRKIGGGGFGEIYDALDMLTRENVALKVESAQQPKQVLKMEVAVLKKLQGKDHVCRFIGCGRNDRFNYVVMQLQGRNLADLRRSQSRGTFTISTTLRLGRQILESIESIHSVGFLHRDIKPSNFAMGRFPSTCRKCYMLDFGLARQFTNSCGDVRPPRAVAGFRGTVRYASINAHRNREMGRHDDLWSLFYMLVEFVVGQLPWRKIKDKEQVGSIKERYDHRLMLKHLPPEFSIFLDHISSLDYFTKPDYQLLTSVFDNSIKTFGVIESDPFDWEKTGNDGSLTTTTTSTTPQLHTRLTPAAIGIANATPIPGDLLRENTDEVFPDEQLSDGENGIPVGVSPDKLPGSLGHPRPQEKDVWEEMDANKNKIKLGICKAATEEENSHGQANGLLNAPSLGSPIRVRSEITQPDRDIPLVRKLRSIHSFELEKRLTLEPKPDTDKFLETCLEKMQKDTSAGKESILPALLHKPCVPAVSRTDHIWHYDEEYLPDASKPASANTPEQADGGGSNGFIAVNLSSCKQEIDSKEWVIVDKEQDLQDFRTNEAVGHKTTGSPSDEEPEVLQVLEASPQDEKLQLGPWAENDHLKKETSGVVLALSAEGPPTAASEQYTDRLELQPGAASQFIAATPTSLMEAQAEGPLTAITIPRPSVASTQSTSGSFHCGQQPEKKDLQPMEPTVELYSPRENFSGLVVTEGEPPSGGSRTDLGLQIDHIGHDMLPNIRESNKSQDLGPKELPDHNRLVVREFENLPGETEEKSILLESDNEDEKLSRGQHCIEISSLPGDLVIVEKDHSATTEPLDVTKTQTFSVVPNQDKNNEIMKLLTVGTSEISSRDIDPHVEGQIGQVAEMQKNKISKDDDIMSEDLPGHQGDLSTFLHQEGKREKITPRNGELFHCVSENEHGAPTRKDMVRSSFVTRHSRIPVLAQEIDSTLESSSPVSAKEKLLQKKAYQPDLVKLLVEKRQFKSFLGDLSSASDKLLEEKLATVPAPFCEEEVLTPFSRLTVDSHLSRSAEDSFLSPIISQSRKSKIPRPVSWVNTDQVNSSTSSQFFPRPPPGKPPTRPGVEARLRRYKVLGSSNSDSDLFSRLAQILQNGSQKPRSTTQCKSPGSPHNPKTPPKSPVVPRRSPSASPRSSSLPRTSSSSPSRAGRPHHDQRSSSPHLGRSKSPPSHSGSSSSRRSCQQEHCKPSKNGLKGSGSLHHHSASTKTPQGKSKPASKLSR
Data set [9] is described as follows: AUClast in BALB/c mouse plasma at 5 mg/kg, ip measured for 0.08 to 24 hrs by LC-MS/MS analysis. The class given is ADME, organism-based. Further details: dose 5 mg/kg, time 0.08-24 hrs, route ip.
A short description of data set [10]: Half life in BALB/c mouse plasma at 10 mg/kg, po measured for 0.25 to 24 hrs by LC-MS/MS analysis. The class given is ADME, organism-based. To be noted: time 0.25-24 hrs.
Data set [11] is described as follows: Tmax in BALB/c mouse plasma at 5 mg/kg, ip measured for 0.08 to 24 hrs by LC-MS/MS analysis. The data set is classed as ADME, organism-based. The settings on record: time 0.08-24 hrs.
A short description of data set [12]: Tmax in BALB/c mouse brain at 10 mg/kg, po measured for 0.25 to 24 hrs by LC-MS/MS analysis. The class given is ADME, organism-based. The settings on record: time 0.25-24 hrs.
A short description of data set [13]: AUClast in BALB/c mouse brain at 10 mg/kg, po measured for 0.25 to 24 hrs by LC-MS/MS analysis. Further details: dose 10 mg/kg, time 0.25-24 hrs, route po. The data set is classed as ADME, organism-based.
The nature of data set [14]: Half life in BALB/c mouse brain at 10 mg/kg, po measured for 0.25 to 24 hrs by LC-MS/MS analysis. To be noted: time 0.25-24 hrs. The data set is classed as ADME, organism-based.
Data set [15] is described as follows: AUClast in BALB/c mouse plasma at 10 mg/kg, po measured for 0.25 to 24 hrs by LC-MS/MS analysis. The class given is ADME, organism-based. Also on record: dose 10 mg/kg, time upper 24 hrs, time lower 0.25 hrs, route po.
Data set [16] deals with Mus musculus. Description: Immunomodulatory effect in Prp-hTDP-43 (A315T) transgenic mouse assessed as reduction in iNOS expression in lumbar region of spinal cord at 5 mg/kg, ip qd for 30 days by Western blot analysis. The data set is classed as functional, organism-based. To be noted: time 30.0 day.
Data set [17] is described as follows: Half life in BALB/c mouse plasma at 5 mg/kg, ip measured for 0.08 to 24 hrs by LC-MS/MS analysis. The data set is classed as ADME, organism-based. The settings on record: time 0.08-24 hrs.
The test system of data set [18] is Mus musculus. Description: Protection of neuron degeneration in Prp-hTDP-43 (A315T) transgenic mouse assessed as prevention of reduction in number of motor neurons in ventral horn of spinal cord at 5 mg/kg, ip qd for 30 days by choline acetyl transferase staining based immunohistochemistry analysis. To be noted: time 30.0 day. The class given is functional, organism-based.

Data set [19] is described as follows: Cmax in BALB/c mouse brain at 10 mg/kg, po measured for 0.25 to 24 hrs by LC-MS/MS analysis. The data set is classed as ADME, organism-based. Also on record: dose 10 mg/kg, time upper 24 hrs, time lower 0.25 hrs, route po.
Data set [20] is described as follows: Tmax in BALB/c mouse brain at 5 mg/kg, ip measured for 0.08 to 24 hrs by LC-MS/MS analysis. The settings on record: time 0.08-24 hrs. The data set is classed as ADME, organism-based.
Data set [21] is described as follows: Permeability in BALB/c mouse assessed as brain to plasma ratio at 10 mg/kg, po measured for 0.25 to 24 hrs by LC-MS/MS analysis. The class given is ADME, organism-based. The settings on record: time 0.25-24 hrs.
Data set [22] is described as follows: Cmax in BALB/c mouse plasma at 5 mg/kg, ip measured for 0.08 to 24 hrs by LC-MS/MS analysis. The class given is ADME, organism-based. Also on record: dose 5 mg/kg, time 0.08-24 hrs, route ip.
Data set [23] can be described thus: Cmax in BALB/c mouse plasma at 10 mg/kg, po measured for 0.25 to 24 hrs by LC-MS/MS analysis. The class given is ADME, organism-based. Also on record: time upper 24 hrs, time lower 0.25 hrs, dose 10 mg/kg, route po.
Data set [24] concerns Mus musculus. Description: Immunomodulatory effect in Prp-hTDP-43 (A315T) transgenic mouse assessed as decrease in Iba-1 immunoreactivity in microglial cells at 5 mg/kg, ip qd for 30 days by immunofluorescence analysis. The class given is functional, organism-based. To be noted: time 30.0 day.
For data set [25], the system named is Mus musculus. Description: Prevention of TDP-43 phosphorylation level in Wild type mouse at lumbar region of spinal cord tissue at 5 mg/kg, ip qd for 30 days by Immunoblot assay. To be noted: time 30.0 day. The data set is classed as functional, organism-based.
Data set [26] is described as follows: Cmax in BALB/c mouse brain at 5 mg/kg, ip measured for 0.08 to 24 hrs by LC-MS/MS analysis. Further details: dose 5 mg/kg, time upper 24 hrs, time lower 0.08 hrs, route ip. The class given is ADME, organism-based.
Data set [27] is described as follows: Permeability coefficient in BALB/c mouse assessed as brain to plasma ratio at 5 mg/kg, ip measured for 0.08 to 24 hrs by LC-MS/MS analysis. The settings on record: time 0.08-24 hrs. The class given is ADME, organism-based.
Data set [28] can be described thus: AUClast in BALB/c mouse brain at 5 mg/kg, ip measured for 0.08 to 24 hrs by LC-MS/MS analysis. The class given is ADME, organism-based. Also on record: dose 5 mg/kg, time 0.08-24 hrs, route ip.
In data set [29] the target is T1, Tau-tubulin kinase 1. Description: Inhibition of recombinant human TTBK1 in ethacrynic acid-treated human SH-SY5Y cells assessed as nuclear localization by measuring reduction in cytosolic TDP-43 accumulation at 5 uM preincubated for 1 hr followed by EA addition and further incubated for 24 hrs by confocal laser scanning microscopy. The settings on record: time 25.0 hrs.

Data set [30] deals with Mus musculus. Briefly: Immunomodulatory effect in Prp-hTDP-43 (A315T) transgenic mouse assessed as decrease in GFAP immunoreactivity in astrocytes at 5 mg/kg, ip qd for 30 days by immunofluorescence analysis. The data set is classed as functional, organism-based. The settings on record: time 30.0 day.
The target of data set [31] is Tau tubulin kinase 1 (Rattus norvegicus) (UniProt A0A0G2JTK1). Briefly: Inhibition of TTBK1 in Wistar rat primary microglia assessed as reduction in LPS-stimulated iNOS induction at 5 to 25 uM measured after 24 hrs by western blot analysis. The data set is classed as cell-based. The settings on record: dose 5-25 µM.
Chain of Tau tubulin kinase 1 (Rattus norvegicus) (A0A0G2JTK1 as listed by the source): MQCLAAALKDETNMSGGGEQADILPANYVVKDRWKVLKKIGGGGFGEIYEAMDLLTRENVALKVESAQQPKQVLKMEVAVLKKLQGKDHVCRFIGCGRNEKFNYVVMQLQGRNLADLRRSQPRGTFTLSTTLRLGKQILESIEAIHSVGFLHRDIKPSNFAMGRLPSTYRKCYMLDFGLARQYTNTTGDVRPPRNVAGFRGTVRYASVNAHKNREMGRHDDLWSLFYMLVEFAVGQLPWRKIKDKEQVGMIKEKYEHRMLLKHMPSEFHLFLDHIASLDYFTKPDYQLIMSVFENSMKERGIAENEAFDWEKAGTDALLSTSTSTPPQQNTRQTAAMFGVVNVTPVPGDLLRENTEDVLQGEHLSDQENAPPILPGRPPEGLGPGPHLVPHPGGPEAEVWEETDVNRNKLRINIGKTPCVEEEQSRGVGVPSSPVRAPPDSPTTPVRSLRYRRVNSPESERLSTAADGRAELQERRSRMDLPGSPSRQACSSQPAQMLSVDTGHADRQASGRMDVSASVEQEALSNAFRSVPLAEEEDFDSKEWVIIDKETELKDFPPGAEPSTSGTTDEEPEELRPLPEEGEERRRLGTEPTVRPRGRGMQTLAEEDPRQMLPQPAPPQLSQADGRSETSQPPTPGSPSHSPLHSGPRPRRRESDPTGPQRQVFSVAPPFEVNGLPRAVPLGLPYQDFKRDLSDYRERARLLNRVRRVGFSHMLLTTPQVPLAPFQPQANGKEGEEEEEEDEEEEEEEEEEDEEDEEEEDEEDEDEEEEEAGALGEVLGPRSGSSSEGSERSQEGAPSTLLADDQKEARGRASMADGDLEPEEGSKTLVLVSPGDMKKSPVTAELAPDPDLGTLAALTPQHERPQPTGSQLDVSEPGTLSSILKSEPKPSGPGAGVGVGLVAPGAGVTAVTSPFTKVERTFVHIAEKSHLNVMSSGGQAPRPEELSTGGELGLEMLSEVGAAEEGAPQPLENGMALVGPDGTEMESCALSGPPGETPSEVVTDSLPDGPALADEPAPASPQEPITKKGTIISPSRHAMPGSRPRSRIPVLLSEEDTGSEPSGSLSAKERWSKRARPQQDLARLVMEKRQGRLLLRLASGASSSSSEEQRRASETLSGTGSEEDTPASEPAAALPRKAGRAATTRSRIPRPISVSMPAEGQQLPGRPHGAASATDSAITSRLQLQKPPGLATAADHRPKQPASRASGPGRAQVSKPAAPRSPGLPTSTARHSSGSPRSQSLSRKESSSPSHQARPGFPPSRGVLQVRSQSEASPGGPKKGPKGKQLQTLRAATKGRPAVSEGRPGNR
The nature of data set [32]: Tmax in BALB/c mouse plasma at 10 mg/kg, po measured for 0.25 to 24 hrs by LC-MS/MS analysis. The data set is classed as ADME, organism-based. The settings on record: time 0.25-24 hrs.
A short description of data set [33]: Half life in BALB/c mouse brain at 5 mg/kg, ip measured for 0.08 to 24 hrs by LC-MS/MS analysis. The class given is ADME, organism-based. To be noted: time 0.08-24 hrs.
Data set [34] relates to Mus musculus. Briefly: Immunomodulatory effect in Prp-hTDP-43 (A315T) transgenic mouse assessed as increase in […] expression in lumbar region of spinal cord at 5 mg/kg, ip qd for 30 days by western blot analysis. The class given is functional, organism-based. To be noted: time 30.0 day.
In data set [35] the test system is Mus musculus. Briefly: Protection of neuron degeneration in Prp-hTDP-43 (A315T) transgenic mouse assessed as prevention of reduction in number of motor neurons in ventral horn of spinal cord at 5 mg/kg, ip qd for 30 days by Nissl staining based immunohistochemistry analysis. To be noted: time 30.0 day. The data set is classed as functional, organism-based.
Data set [36] concerns the target T2, Tau-tubulin kinase 2. Briefly: Inhibition of TTBK2 (unknown origin).
The target of data set [37] is T1, Tau-tubulin kinase 1.

In general, inhibition refers to the share of the control response that was lost under treatment. With `Clc1cccc(Oc2ccc(Nc3ncnc4[nH]ccc34)cc2)c1`, the result with SH-SY5Y [1], in the data set on SH-SY5Y [3], in the data set on SH-SY5Y [4], at Tau-tubulin kinase 1 [5], on Tau-tubulin kinase 1 [6] and on Tau-tubulin kinase 1 [7] was Active. Also, the permeability result in data set [2] is recorded as “Permeable”. This compound also yielded an inhibition against Tau-tubulin kinase 2 [8] of 1%.
In the case of `Cc1ccc(Oc2ccc(Nc3ncnc4[nH]ccc34)cc2)cc1`, the result with SH-SY5Y [1], with SH-SY5Y [3] and with SH-SY5Y [4] was Active. Further, the permeability entry in data set [2] is reported as “Permeable”.
A word on the AUC(0-t): it is the area under the concentration-time curve up to a stated or last time point. Higher therefore signals high exposure. The term half-life denotes the time in which the quantity being followed falls by half. A low value points to rapid decline. As usually defined, the Tmax is the time at which the peak concentration occurs. The term Cmax denotes the peak of the concentration-time curve. Usually Kp stands for the ratio of the level in a tissue or fluid to that in plasma or blood. For the compound `Clc1ccc(Oc2ccc(Nc3ncnc4[nH]ccc34)cc2)cc1`, the outcome in the data set on SH-SY5Y [1], with SH-SY5Y [3], in the data set with Mus musculus [16], with Mus musculus [18], in the data set on SH-SY5Y [4] and with Mus musculus [24] was Active. In addition, the outcome with Mus musculus [25], with Mus musculus [30], on Tau-tubulin kinase 1 [5], at Tau-tubulin kinase 1 [6], in the data set on Mus musculus [34] and on Tau-tubulin kinase 1 [7] was Active. The outcome with Mus musculus [35] was Active. In addition, the area under the curve AUC(0-t) was 5960 ng·h/mL in [9], 49200 ng·h/mL in data set [13], 18400 ng·h/mL in [15] and 15700 ng·h/mL in data set [28]. Also, the permeability result in [2] is “Permeable”. Further, the half-life in data set [10] is 3.3 h; in [14] it was 3.4 h; in data set [17] it was 3.75 h; in data set [33], 3.46 h. In addition, the Tmax in [11] was found to be 1 h; in data set [12], 2 h; in data set [20], 1 h; in [32] it was 2 h. Also, the peak concentration (Cmax) in data set [19] amounted to 4920 ng/mL; in [22], 1430 ng/mL; in data set [23] it was 2270 ng/mL; in data set [26] it was 4170 ng/mL. The Kp in data set [21] came to 2.67; in data set [27], 2.63. Also, the inhibition entry (at Tau-tubulin kinase 1 [29]; in data set [31]) was “Active” throughout.
Usually IC50 stands for the point on the concentration scale where inhibition reaches its midpoint. Read a high IC50 as weaker potency in that assay. For the compound `CC1(N)CCN(Cc2ccn3ncnc(Nc4cc(O)cc(Br)c4)c23)CC1`, the IC50 against Tau-tubulin kinase 2 [36] worked out at 170 nM.
Turning to `CC[C@@](C)(O)C#Cc1cc2c(ccn2-c2cc(OC)nc(N)n2)cn1`, the values for the IC50 on Tau-tubulin kinase 1 [37] and against Tau-tubulin kinase 2 [36] were 1.6 nM and 2.7 nM, respectively.

These data come from ChEMBL document CHEMBL5154682, “TDP-43 Modulation by Tau-Tubulin Kinase 1 Inhibitors: A New Avenue for Future Amyotrophic Lateral Sclerosis Therapy” (J Med Chem, 2022).
